Assay results from patent US20120022083A1, “SMALL MOLECULE MODULATORS OF CELL ADHESION” (ADHEREX TECHNOLOGIES, INC., priority 2008, published 2012).

T1: Ncad-Fc protein (chicken N-cadherin ectodomain fused to the Fc fragment of mouse IgG2b) (Gallus gallus, UniProt P10288)
T1 construct: chicken N-cadherin ectodomain fused to the Fc fragment of mouse IgG2b
T1 sequence (P10288 165-729 limits assumed): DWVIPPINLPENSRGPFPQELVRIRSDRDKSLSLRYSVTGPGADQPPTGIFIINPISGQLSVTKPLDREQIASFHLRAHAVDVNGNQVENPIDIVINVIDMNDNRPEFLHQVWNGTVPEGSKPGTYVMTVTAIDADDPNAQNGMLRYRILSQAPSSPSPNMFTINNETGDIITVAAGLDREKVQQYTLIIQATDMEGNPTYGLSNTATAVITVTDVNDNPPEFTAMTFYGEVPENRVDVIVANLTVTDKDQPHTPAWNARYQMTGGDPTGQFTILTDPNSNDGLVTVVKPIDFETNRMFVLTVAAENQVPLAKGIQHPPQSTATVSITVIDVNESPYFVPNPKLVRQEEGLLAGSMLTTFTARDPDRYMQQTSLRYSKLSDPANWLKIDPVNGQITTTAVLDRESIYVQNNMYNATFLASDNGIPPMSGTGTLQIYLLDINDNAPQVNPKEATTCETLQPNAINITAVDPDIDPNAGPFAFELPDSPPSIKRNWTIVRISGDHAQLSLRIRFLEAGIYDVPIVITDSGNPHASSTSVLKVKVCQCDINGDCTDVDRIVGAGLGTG

B1: Ncad-Fc protein (chicken N-cadherin ectodomain fused to the Fc fragment of mouse IgG2b) (Fc fusion, UniProt P10288 165-729, looked up)
chain: T1 sequence (P10288 165-729 limits assumed)
notes: extracellular domain; Captured on magnetic Dynabeads Protein A for the bead-bead aggregation assay; also called N-cadherin coated Dynabeads; not shown: Fc fragment of mouse IgG2b

Molecular target: T1, Ncad-Fc protein (chicken N-cadherin ectodomain fused to the Fc fragment of mouse IgG2b)
Assay: Ncad-Fc bead-bead aggregation assay
Type: biochemical
Settings: N-cadherin coated Dynabeads, 30 minutes to 1 hour at 37° C.
Procedure: Compounds of the invention were assayed according to the following procedures.
(§1) 10 μl of magnetic Dynabeads® Protein A (Prod. No. 100.01) were pipetted into a 1.5 ml eppendorf tube and washed with 0.5 ml of PBS (1×), 0.1% Tween 20, and 2 mM EGTA using the Dynal MPC-S Magnetic Particle Concentrator. Supernatant was aspirated, the magnet was removed and beads were washed once more with same buffer using the Dynal MPC-S Magnetic Particle Concentrator. Following this supernatant was once again removed and the beads were resuspended in 10 μl of PBS (1×), 0.1% Tween 20, and 2 mM EGTA buffer.
(§2) An equal 10 ul volume of Ncad-Fc protein (0.25 mg/10 μl, chicken N-cadherin ectodomain fused to the Fc fragment of mouse IgG2b) or human Fc (Jackson Immunoresearch, concentration 2.3 mg/ml) suspended in PBS (1×), 0.1% Tween 20, 2 mM EGTA and 1% BSA (Sigma, Prod. No. A0281) was added and incubated for 1-2 hours at room temperature on the Vortex Genie 2, followed by three washes in 0.5 ml of the same buffer. The beads were then resuspended in 80 μl PBS (1×) plus 1% BSA (dilution 1/8) and kept on ice.
The aggregation assay was performed in duplicates in 12 well/6 mm slides (CEL-LINE/ERIE SCIENTIFIC CO. Prod. No. 10-103). Experimentation was conducted in eppendorf tubes containing […] of DMEM medium ([…] glucose, Gibco Prod. No. 21 885-025)+10% Fetal Calf Serum (FCS) containing an N-cadherin inhibitor or calcium chelator (EDTA, EGTA) with the addition of 4 μl of N-cadherin coated Dynabeads®. The resulting bead solutions were gently mixed on ice followed by 50 μl of solution deposited per well.
Slides were incubated for 30 minutes to 1 hour at 37° C. and 5% CO2. After incubation two images per well were recorded on an inverted microscope (Nikon Diaphot) at 20× magnification, with an 8 Volt illumination using a Nikon D100. Images were analyzed using the Bead Counting software program from Metamorph (Meta Imaging Series 6.2r6).
In this assay, in the absence of inhibitor, the beads bind to each other and aggregate due to dimerization of the N-cadherin molecules on the surfaces of the beads. Accordingly, compounds effective for disrupting N-cadherin-mediated cell adhesion can be identified on the basis of whether they disrupt bead-bead aggregation in this assay.

| Molecule | active in Ncad-Fc bead-bead aggregation assay (disrupt bead-bead aggregation) |
| --- | --- |
| Cc1nnc(-c2ccccn2)[nH]1 [compound 65-1, 2-(5-Methyl-4H-[1,2,4]Triazol-3-Yl)-Pyridine] | active |
| Cc1nnc(-c2ccc(Cl)cc2)[nH]1 [compound 9-1, 3-(4-Chlorophenyl)-5-Methyl-4H-[1,2,4]Triazole] | active |
| Cc1nnc(-c2cccc(Cl)c2)[nH]1 [compound 8-1, 3-(3-Chlorophenyl)-5-Methyl-4H-[1,2,4]Triazole] | active |
| Cc1nnc(-c2cccs2)[nH]1 [compound 68-1, 3-Methyl-5-Thiophen-2-Yl-4H-[1,2,4]Triazole] | active |
| Cc1cccc(-c2nnc(C)[nH]2)c1 [compound 5-1, 3-Methyl-5-M-Tolyl-4H-[1,2,4]Triazole] | active |
| CCc1nnc(-c2ccc(C(C)(C)C)cc2)[nH]1 [compound 1-1, 3-(4-Tert-Butylphenyl)-5-Ethyl-4H-[1,2,4]Triazole] | active |
| Cc1nnc(-c2ccc(C(C)(C)C)cc2)[nH]1 [compound 53-1, 3-(4-Tert-Butylphenyl)-5-Methyl-4H-[1,2,4]Triazole] | active |
| Cc1nnc(Cc2ccccc2)[nH]1 [compound 10-1, 3-Benzyl-5-Methyl-4H-[1,2,4]Triazole] | active |
| CC(C)(C)c1ccc(-c2nnc(N)[nH]2)cc1 [compound 50-1, 5-(4-Tert-Butylphenyl)-4H-[1,2,4]Triazol-3-Ylamine] | active |
| Cc1nnc(-c2ccc(Cl)c(Cl)c2)[nH]1 [compound 14-1, 3-(3,4-Dichlorophenyl)-5-Methyl-4H-[1,2,4]Triazole] | active |
| Cc1nnc(-c2ccccc2Cl)[nH]1 [compound 7-1, 3-(2-Chlorophenyl)-5-Methyl-4H-[1,2,4]Triazole] | active |
| Cc1nnc(-c2cccnc2)[nH]1 [compound 66-1, 3-(5-Methyl-4H-[1,2,4]Triazol-3-Yl)-Pyridine] | active |
| COc1ccc(-c2nnc(C)[nH]2)cc1 [compound 12-1, 3-(4-Methoxyphenyl)-5-Methyl-4H-[1,2,4]Triazole] | active |
| COc1cccc(-c2nnc(C)[nH]2)c1 [compound 11-1, 3-(3-Methoxyphenyl)-5-Methyl-4H-[1,2,4]Triazole] | active |
| Cc1nnc(-c2ccncc2)[nH]1 [compound 67-1, 4-(5-Methyl-4H-[1,2,4]Triazol-3-Yl)-Pyridine] | active |

System: retinal explants on substrate protein (Human N-cadherin-Fc or Laminin)
Assay: Culture of retinal explants and quantification of neurite outgrowth
Type: cell-based, White Leghorn chick
Settings: embryonic day 8 chick retina explants, examined approximately 20 hours after plating
Description: Tissue culture dishes were coated with nitrocellulose and allowed to dry (Lagenaur and Lemmon, [citation?] 1987). Substrate protein (Human N-cadherin-Fc or Laminin) was spread across the central region of each dish. Retinal explant cultures were made according to a previously described procedure (Halfter, W. et al., Dev. Biol., 95:56-64, 1983; Drazba, J. and Lemmon, V., Dev. Biol., 138:82-93, 1990). In brief, embryonic day 8 (stage 32-34 according to Hamburger and Hamilton, [citation?] 1951) White Leghorn chick eyes were dissected and the retina was flattened with the photoreceptor side down onto black nitrocellulose filters that had previously been incubated in concanavalin A. The filter was then cut into strips perpendicular to the optic fissure. Strips were inverted onto substrate-coated culture dishes so that the gang lion cell layer was directly adjacent to the substratum. N-cadherin small molecule antagonists were diluted in the culture medium and added at the time of plating. Neurite outgrowth was examined at approximately 20 hours after plating.
Neurite outgrowth from retina explants was catalogued using a SPOT RT digital camera and image acquisition software. The length of the five longest neurites per explant were measured (Burden-Gulley, S. M. and Brady-Kalnay, S. M. J. Cell Biol., 144:1323-1336, 1999). To measure neurite density, the region of neurite outgrowth was outlined to define the region of interest and the neurites were highlighted using Metamorph software. Data from similar experimental conditions were combined, analyzed by Student's t test and plotted.

| Molecule | inhibit neurite outgrowth |
| --- | --- |
| COc1ccc(-c2nnc(S)[nH]2)cc1 [compound 69-2] | inhibit neurite outgrowth |
| CC(C)c1nnc(-c2ccc(C(C)(C)C)cc2)[nH]1 [compound 21-1, 3-(4-Tert-Butylphenyl)-5-Isopropyl-4H-[1,2,4]Triazole] | inhibit neurite outgrowth |
| CC(C)(C)c1ccc(-c2nnc(Cc3ccccc3)[nH]2)cc1 [compound 26-1, 3-Benzyl-5-(4-Tert-Butylphenyl)-4H-[1,2,4]Triazole] | inhibit neurite outgrowth |
| CC(C)(C)c1ccc(-c2nnc(C3CC3)[nH]2)cc1 [compound 22-1, 3-(4-Tert-Butylphenyl)-5-Cyclopropyl-4H-[1,2,4]Triazole] | inhibit neurite outgrowth |
| CC(C)(C)c1ccc(-c2nnc(C3CCC3)[nH]2)cc1 [compound 25-1, 3-(4-Tert-Butylphenyl)-5-Cyclobutyl-4H-[1,2,4]Triazole] | inhibit neurite outgrowth |
| CCc1nnc(-c2ccc(C(C)(C)C)cc2)[nH]1 [compound 1-1, 3-(4-Tert-Butylphenyl)-5-Ethyl-4H-[1,2,4]Triazole] | inhibit neurite outgrowth |
| Cc1nnc(-c2ccc(C(C)(C)C)cc2)[nH]1 [compound 53-1, 3-(4-Tert-Butylphenyl)-5-Methyl-4H-[1,2,4]Triazole] | inhibit neurite outgrowth |
| Cn1nc(-c2ccc(C(C)(C)C)cc2)nc1S [compound 46-1, 5-(4-Tert-Butylphenyl)-2-Methyl-2H-[1,2,4]Triazole-3-Thiol] | inhibit neurite outgrowth |
| Sc1nnc(-c2cccs2)[nH]1 [compound 69-4] | inhibit neurite outgrowth |
| Cc1cnc(-c2ccc(C(C)(C)C)cc2)[nH]1 [compound 64-1, 2-(4-Tert-Butylphenyl)-5-Methyl-1H-Imidazole] | inhibit neurite outgrowth |
| CC(C)(C)c1ccc(-c2nnc(C(F)F)[nH]2)cc1 [compound 57-1, 3-(4-Tert-Butylphenyl)-5-Difluoromethyl-4H-[1,2,4]Triazole] | inhibit neurite outgrowth |
| CC(C)(C)c1ccc(-c2nnc(-c3cnccn3)[nH]2)cc1 [compound 28-1, 2-[5-(4-Tert-Butylphenyl)-4H-[1,2,4]Triazol-3-Yl]-Pyrazine] | inhibit neurite outgrowth |

Molecular target: the molecule itself
Assay: bead-bead aggregation assay, Ncad-Fc on Protein A Dynabeads, microscopy and bead counting
Settings: not given
Procedure: as §1, §2
The aggregation assay was performed in duplicates in 12 well/6 mm slides (CEL-LINE/ERIE SCIENTIFIC CO. Prod. No. 10-103). […]

| Molecule | binding result |
| --- | --- |
| B1 | binds |
